The results in this text go back to patent US7420068B2, “Crystalline composition containing escitalopram” (H. Lundbeck A/S, priority 2004, dated 2008).

Where a name gives a salt, the structure may show the parent alone.

What all share (type): physicochemical
Data set [1] in a line: Particle size distribution by laser diffraction (Sympatec Helos, 1 bar dispersive pressure). The source says:
As used herein, “particle size distribution” means the cumulative volume size distribution of equivalent spherical diameters as determined by laser diffraction at 1 bar dispersive pressure in a Sympatec Helos equipment. “Median particle size” “MPS” and X50 refer, correspondingly, each to the median or 50% quantile of said particle size distribution. “X10” and “X95” refer, correspondingly, to the 10% respectively the 95% quantile. “X10/X50” and “X50/X95” refer to the ratio between X10 and X50 respectively X50 and X95.

A short description of data set [2]: Particle size of prior-art crystalline products (background statement). The settings on record: product of the known preparation process.
The nature of data set [3]: Flow properties of prior-art crystalline products (background statement). The settings on record: product of the known preparation process.

Molecule `CN(C)CCC[C@@]1(c2ccc(F)cc2)OCc2cc(C#N)ccc21` [Example 1, escitalopram oxalate] yielded an X50 (median particle size) in data set [1] (S-diol batches, production scale recrystallisation from ethanol) of 171 µm. For the same molecule, the X10/X50 in data set [1] (S-diol batches, ratio of 10% quantile to median) is recorded as 0.13. Further, the X50/X95 in data set [1] (S-diol batches, ratio of median to 95% quantile) is 0.44. Besides, the “Particle size at quantile 10%” value in data set [1] (Sympatec Helos, quantile 10%) was determined as 13 μm. For the same molecule, the “Particle size at quantile 50%” value in data set [1] (Sympatec Helos, quantile 50%) was determined as 163 μm. Moreover, in data set [1] (Sympatec Helos, quantile 90%), the “Particle size at quantile 90%” value is recorded as 455 μm.

Regarding `CN(C)CCCC1(c2ccc(F)cc2)OCc2cc(C#N)ccc21` (stereo not shown) [citalopram hydrobromide], in data set [2], the particle size was 2-20 μm. The flow properties result in data set [3] is listed as “very poor”.

Turning to `CN(C)CCC[C@@]1(c2ccc(F)cc2)OCc2cc(C#N)ccc21.O=C(O)C(=O)O` [escitalopram oxalate, (S)-1-[3-(dimethylamino)propyl]-1-(4-fluorophenyl)-1,3-dihydro-5-isobenzofurancarbonitrile oxalate], the particle size in data set [2] was 2-20 μm. The flow properties result in data set [3] is listed as “similarly poor”.
